Tests used:
cPP cells [1] = assay: Omission of individual components from complete cPP culture medium on 3T3-J2 feeders (phase contrast, qRT-PCR); type: cell-based, human; details: for Effect of removing the component on cPP expansion, colony size and morphology: component individually omitted from complete medium, cPP cells cultured 6 days on 3T3-J2 feeders
Protocol: Gentle cell dissociation reagent (STEMCELL Technologies, 07174) was used to passage cPP cells as aggregates that were then seeded at a 1:6 split ratio onto a layer of 3T3-J2 feeders (0.5×10^6 to 1×10^6 cells/cm^2) in medium composed of advanced DMEM/F12 (Thermo Fisher Scientific, 21634010), 2 mM L-glutamine (Thermo Fisher Scientific, 25030), 100 U/mL penicillin/streptomycin (Thermo Fisher Scientific, 15140122), 1× N2 supplement (Thermo Fisher Scientific, 17502-048), 1× B27 supplement (Thermo Fisher Scientific, 17504-044), 30 nM dexamethasone (STEMCELL Technologies, 72092), 50 ng/mL EGF (R&D Systems, 236-EG-200), 50 ng/mL FGF10 (Source Bioscience, ABC144), 3 μM RA (Sigma, R2625), 10 μM SB431542 (Calbiochem, 616464), and 1 μM DAPT (Sigma, D5942). If plating single cPP cells, complete medium was supplemented with 10 μM Y27632 for the first 48 hr (Sigma, Y0503). Medium was completely replenished every 2-3 days.
RNA was isolated from samples using an RNeasy mini kit (Qiagen, cat # 74104) and reverse transcribed to generate cDNA using a high-capacity reverse transcription kit and random hexamer primers (Applied Biosystems, 4368814,1 μg RNA per 20 μL reaction). Quantitative RT-PCR was carried out using SYBR Select Mastermix (Applied Biosystems, 4472908). Data were analyzed using the ΔΔCT method, and normalized to expression of the housekeeping gene TBP in each sample.
To establish the roles played by the growth factors and small molecules in our culture media, each was removed individually and the effect on differentiation and proliferation was assessed.

cPP cells [2] = assay: Microbioreactor array (MBA) screening of cPP maintenance and proliferation; type: cell-based, human; details: relatively low concentration (1 μM) in cPP culture medium
Protocol: Microbioreactor arrays were used to screen the effects of combinations of exogenous signaling molecules on cPP cells. MBAs provide combinatorial mixing of input factors, combined with continuous flow of culture media over culture chambers. MBAs were autoclaved and filled with sterile PBS, then coated (2-4 h, room temperature) with a single 1 mL injection of hESC-qualified matrigel at the manufacturer's recommended concentration. cPP cells in suspension in complete medium at 5×10^6/mL were then seeded in the MBA, giving a surface density of 50×10^6cells/cm^2. Cells were allowed to attach for a total of 20 h, with a media exchange performed every 6 h. […] Nuclear segmentation and quantification of nuclear intensities of PDX1 and SOX9 then proceeded similarly as previously described.
To quantify the effect of exogenous signaling molecules on the maintenance and expansion of cPP cells, this study used a microbioreactor array (MBA) screening platform to measure differentiation and proliferation. […] The study then used an image-segmentation algorithm to identify individual nuclei and quantify immunofluorescence staining for PDX1 and SOX9, thereby enabling the determination of the percentage of double-positive cells following exposure to different growth factor regimes. […]

| Compound | Effect of removing the component on cPP expansion, colony size and morphology (cPP cells [1]) | Effect on proliferation of cPP cells (cPP cells [2]) | Effect of removing the component on viability (cPP cells [1]; component removed from the culture media over multiple passages) |
| --- | --- | --- | --- |
| NC(=O)c1ccc(-c2nc(-c3ccc4c(c3)OCO4)c(-c3ccccn3)[nH]2)cc1 [SB431542] | caused colonies to detach from the feeder layer | – | – |
| EGF: epidermal growth factor, growth factor in the cPP culture medium (50 ng/mL) (NSDSECPLSHDGYCLHDGVCMYIEALDKYACNCVVGYIGERCQYRDLKWWELR; Epidermal growth factor; UniProt P01133 971-1023, looked up) | prevented cPP expansion | – | – |
| C[C@H](NC(=O)Cc1cc(F)cc(F)c1)C(=O)N[C@H](C(=O)OC(C)(C)C)c1ccccc1 [DAPT] | did not significantly affect colony size or morphology in the short term | promotes proliferation of cPP cells | noticeable loss of viability |

— patent US20200140826A1, “Maintenance and Expansion of Pancreatic Progenitor Cells” (AGENCY FOR SCIENCE, TECHNOLOGY AND RESEARCH, priority 2017, published 2020)
